Laboratory results published in patent US9682955B2, “Quinazoline derivatives useful as CB-1 inverse agonists” (Janssen Pharmaceutica NV, priority 2014, dated 2017).

Columns and labels:
[1] = molecular target: Human CB1R (Cannabanoid receptor 1) (Homo sapiens (Human), UniProt P21554); test: CB-1 in vitro cAMP assay (HTRF); type: cell-based; conditions: mean where tested more than once
Text: (§1) CB1 and CB2 receptors are Gi-coupled GPCR. Activation of CB1 and CB2 receptors results in a decrease in cAMP production. An inverse agonist of the CB1 or CB2 receptor results in the opposite effect, an increase of cAMP production. The principle of this assay is based on HTRF® technology (Homogeneous Time-Resolved Fluorescence). The method is a competitive immunoassay between native cAMP produced by cells and the cAMP labeled with the fluorophore d2. The tracer binding is quantified by a Mab anti-cAMP labeled with Eu3+TBP-NHS Cryptate (supplied as part of the assay kit). The specific signal (i.e. energy transfer) is inversely proportional to the concentration of cAMP in the standard or sample.
(§2) Human CB1R (Cannabanoid receptor 1) was stably transfected in HEK-293 cells (DiscoveRx, cat: 93-0200C1). Human CB2R (Cannabanoid receptor 2) was stably transfected in HEK-293 cells (DiscoveRx, cat: 93-0201C1). Cell cultures were maintained in media: DMEM (Invitrogen Cat#12430-054) supplemented with 10% HI FBS (Invitrogen Cat#16140-071), 1% L-glutamine (Invitrogen Cat#25030-081), 0.2 mg/ml Hygromycin B (Invitrogen Cat#10687-010), 600 μg/mL G418 (Invitrogen Cat#10131-035), and 1× Penn/Strep (Invitrogen 15140-122). After cell expansion, aliquots were cryo-stored in media containing 5% DMSO (Pierce Cat#20684).
(§3) One day prior to experiments media was warmed to 37° C. and the cryo-stored cells were thawed in a 37° C. water bath. The cells were then added to media (10× volume) and the mixture was centrifugated at 1000 RPM for 5 min. The supernate was removed and the cells were re-suspended in media. A sample of the cell suspension was evaluated on a Cedex XS automated cell counter (Innovatis Systems) to determine viable cells/ml. Additional media was added to the cells to achieve a final cell density of 4E5 cells/mL. The cells were then plated into 384 well PDL white solid bottom plates (Greiner, Cat#781945) at 20 μL per well using a Multidrop (Thermo Scientific). Cells were removed from Row P (location of cAMP standards). Two columns of cells were plated into a clear bottom 384 well PDL coated plate (Greiner, Cat#781944) to view confluence the day of the assay. The cell plates were lidded and stored for 15 minutes in a hood, then transferred to an incubator (37° C., 5% CO2, 95% humidity) overnight.
(§4) DMSO was added to all wells of 384 well V bottom polystyrene plate (Greiner, Cat#781280) except to columns 1 and 13, rows O and P and wells M13-M23 and N13-N23. Test compounds (60 μL, 10 mM) were added to Column 1 and 13 (A1 through N1 and A13 through L13). Test compounds were serially diluted 1/3 by transferring and mixing 20 μl sample with 40 μL DMSO.
(§5) DMSO (40 μL) was added to wells of 384 well V bottom polystyrene plate: O2 through O11, M14 through M23, N14 through N23, and O14 through O23. AM630 (also known as [6-iodo-2-methyl-1-[2-(4-morpholinyl)ethyl]-1H-indol-3-yl](4-methoxyphenyl)-methanone, Cayman Chemical, Cat#10006974) (60 μL, 10 mM) was added to O1; and 1-(2,4-dichlorophenyl)-7-[(4-fluorophenyl)methylene]-4,5,6,7-tetrahydro-N-1-piperidinyl-1H-indazole-3-carboxamide (60 μL, 10 mM) was added to N13. The control was serially diluted 1/3 by transferring and mixing 20 μl sample with 40 μL DMSO. This process resulted 11 doses per control, 10 mM to […].
(§6) Cells plated the day prior to the assay in clear bottom plates were viewed on an inverse microscope to ensure confluency in the range of 60-75%. […]

[2] = molecular target: Human CB2R (Cannabanoid receptor 2) (Homo sapiens (Human), UniProt P34972); test: CB-2 in vitro cAMP assay (HTRF); type: cell-based; conditions: mean where tested more than once
Chain of Human CB2R (Cannabanoid receptor 2) (P34972 whole entry): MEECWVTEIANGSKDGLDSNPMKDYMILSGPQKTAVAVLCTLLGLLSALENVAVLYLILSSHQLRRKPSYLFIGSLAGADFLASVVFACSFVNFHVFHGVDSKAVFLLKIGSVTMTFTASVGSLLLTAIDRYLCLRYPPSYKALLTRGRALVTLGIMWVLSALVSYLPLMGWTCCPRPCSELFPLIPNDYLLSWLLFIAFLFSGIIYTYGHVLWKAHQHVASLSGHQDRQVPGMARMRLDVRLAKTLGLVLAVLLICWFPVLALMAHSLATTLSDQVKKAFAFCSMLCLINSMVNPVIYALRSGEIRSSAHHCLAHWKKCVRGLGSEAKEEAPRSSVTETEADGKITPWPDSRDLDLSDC
Text: as §1, §2, §3, §4, §5, §6

Chain of Human CB1R (Cannabanoid receptor 1) (P21554 whole entry): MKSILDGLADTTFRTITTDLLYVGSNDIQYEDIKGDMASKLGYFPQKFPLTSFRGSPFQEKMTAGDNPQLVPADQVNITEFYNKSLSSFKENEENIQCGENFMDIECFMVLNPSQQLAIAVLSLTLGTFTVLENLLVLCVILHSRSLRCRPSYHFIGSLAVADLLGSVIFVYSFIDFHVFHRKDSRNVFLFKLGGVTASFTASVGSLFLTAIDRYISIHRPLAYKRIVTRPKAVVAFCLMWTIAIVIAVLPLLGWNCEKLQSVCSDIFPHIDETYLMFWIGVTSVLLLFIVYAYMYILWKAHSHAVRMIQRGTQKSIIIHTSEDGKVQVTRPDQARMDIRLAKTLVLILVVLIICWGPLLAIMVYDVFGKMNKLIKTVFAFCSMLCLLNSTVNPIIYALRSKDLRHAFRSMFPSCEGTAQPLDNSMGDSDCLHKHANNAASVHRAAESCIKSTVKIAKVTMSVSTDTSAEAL

EC50 [1] [nM] | EC50 [2] [nM] | Structure (SMILES)
3 | 72 | FC(F)(F)c1ccc(N2CCC(Nc3ncnc4ccc(C(c5ccc(Cl)cc5)c5ccc(Cl)cc5)cc34)CC2)cc1 [compound 129, 6-(bis(4-chlorophenyl)methyl)-N-(1-(4-(trifluoromethyl)phenyl)piperidin-4-yl)quinazolin-4-amine]
17 | 218 | O=S(=O)(N1CCC(Nc2ncnc3ccc(C(c4ccc(Cl)cc4)c4ccc(Br)cc4)cc23)CC1)C(F)(F)F (stereo not shown) [Compound #20, 6-((4-bromophenyl)(4-chlorophenyl)methyl)-N-(1-((trifluoromethyl)sulfonyl)piperidin-4-yl)quinazolin-4-amine]
5 | > 10000 | [N-]=[N+]=NCCOc1nc(NCc2ccc(C(F)(F)F)cc2)c2cc(C(c3ccc(Cl)cc3)c3ccc(Cl)cc3)ccc2n1 [Compound #75, 2-(2-azidoethoxy)-6-(bis(4-chlorophenyl)methyl)-N-(4-(trifluoromethyl)benzyl)quinazolin-4-amine]
34 | 461 | NC(=O)c1ccc(N2CCC(Nc3ncnc4ccc(C(c5ccc(Cl)cc5)c5ccc(Cl)cc5)cc34)CC2)cc1 [Compound #90, 4-(4-((6-(bis(4-chlorophenyl)methyl)quinazolin-4-yl)amino)piperidin-1-yl)benzamide]
2 | 1930 | O=S(=O)(c1ccccc1F)N1CCC(Nc2ncnc3ccc(C(c4ccc(Cl)cc4)c4ccc(Cl)cc4)cc23)CC1 [compound 124, 6-(bis(4-chlorophenyl)methyl)-N-(1-(2-fluorophenylsulfonyl)piperidin-4-yl)quinazolin-4-amine]
4 | 2150 | O=S(=O)(N1CCCC1)N1CCC(Nc2ncnc3ccc(C(c4ccc(Cl)cc4)c4ccc(Cl)cc4)cc23)CC1 [Compound #120, 6-(bis(4-chlorophenyl)methyl)-N-(1-(pyrrolidin-1-ylsulfonyl)piperidin-4-yl)quinazolin-4-amine]
69 | > 10000 | Oc1cccc(CN2CCC(Nc3ncnc4ccc(C(c5ccc(Cl)cc5)c5ccc(Cl)cc5)cc34)CC2)c1 [Compound #28, 3-((4-((6-(bis(4-chlorophenyl)methyl)quinazolin-4-yl)amino)piperidin-1-yl)methyl)phenol]
432 | > 10000 | CS(=O)(=O)Nc1nc(NC2CCN(S(=O)(=O)C(F)(F)F)CC2)c2cc(C(c3ccc(Cl)cc3)c3ccc(Cl)cc3)ccc2n1 [Compound #100, N-(6-(bis(4-chlorophenyl)methyl)-4-((1-((trifluoromethyl)sulfonyl)piperidin-4-yl)amino)quinazolin-2-yl)methanesulfonamide]
2 | 452 | CCOC(=O)CCC(=O)N1CCC(Nc2ncnc3ccc(C(c4ccc(Cl)cc4)c4ccc(Cl)cc4)cc23)CC1 [Compound #81, Ethyl 4-(4-((6-(bis(4-chlorophenyl)methyl)quinazolin-4-yl)amino)piperidin-1-yl)-4-oxobutanoate]
25 | 1180 | FC(F)(F)c1cncc(CNc2ncnc3ccc(C(c4ccc(Cl)cc4)c4ccc(Cl)cc4)cc23)c1 [compound 126, 6-(bis(4-chlorophenyl)methyl)-N-((5-(trifluoromethyl)pyridin-3-yl)methyl)quinazolin-4-amine]
176 | > 10000 | O=C(O)c1ccc(CN2CCC(Nc3ncnc4ccc(C(c5ccc(Cl)cc5)c5ccc(Cl)cc5)cc34)CC2)s1 [compound 34, 5-((4-(6-(bis(4-chlorophenyl)methyl)quinazolin-4-ylamino)piperidin-1-yl)methyl)thiophene-2-carboxylic acid]
146 | 6760 | O=C(O)c1cccc(CN2CCC(Nc3ncnc4ccc(C(c5ccc(Cl)cc5)c5ccc(Cl)cc5)cc34)CC2)c1 [Compound #37, 3-((4-((6-(bis(4-chlorophenyl)methyl)quinazolin-4-yl)amino)piperidin-1-yl)methyl)benzoic acid]
8 | 248 | O=S(=O)(c1ccc(O)cc1)N1CCC(Nc2ncnc3ccc(C(c4ccc(Cl)cc4)c4ccc(Cl)cc4)cc23)CC1 [Compound #8]
2 | 280 | Clc1ccc(C(c2ccc(Cl)cc2)c2ccc3ncnc(NC4CCN(c5ccccc5)CC4)c3c2)cc1 [Compound #137, 6-(bis(4-chlorophenyl)methyl)-N-(1-phenylpiperidin-4-yl)quinazolin-4-amine]
70 | 5700 | CC(=O)Nc1nc(NC2CCN(S(=O)(=O)C(F)(F)F)CC2)c2cc(C(c3ccc(Cl)cc3)c3ccc(Cl)cc3)ccc2n1 [Compound #106, N-(6-(bis(4-chlorophenyl)methyl)-4-((1-((trifluoromethyl)sulfonyl)piperidin-4-yl)amino)quinazolin-2-yl)acetamide]
19 | > 10000 | OCCCCOc1nc(NCc2ccc(C(F)(F)F)cc2)c2cc(C(c3ccc(Cl)cc3)c3ccc(Cl)cc3)ccc2n1 [Compound #71, 4-((6-(bis(4-chlorophenyl)methyl)-4-((4-(trifluoromethyl)benzyl)amino)quinazolin-2-yl)oxy)butan-1-ol]
8 | 2500 | CC(Nc1ncnc2ccc(C(c3ccc(Cl)cc3)c3ccc(Cl)cc3)cc12)c1ccc(C(F)(F)F)cc1 (stereo not shown) [compound 116, 6-(bis(4-chlorophenyl)methyl)-N-(1-(4-(trifluoromethyl)phenyl)ethyl)quinazolin-4-amine]
4820 | 4710 | O=C(O)c1ccccc1CN1CCC(Nc2ncnc3ccc(C(c4ccc(Cl)cc4)c4ccc(Cl)cc4)cc23)CC1 [compound 21, 2-((4-(6-(bis(4-chlorophenyl)methyl)quinazolin-4-ylamino)piperidin-1-yl)methyl)benzoic acid]
9 | 170 | CCOC(=O)COc1ccc(S(=O)(=O)N2CCC(Nc3ncnc4ccc(C(c5ccc(Cl)cc5)c5ccc(Cl)cc5)cc34)CC2)cc1 [Compound #4, Ethyl 2-(4-((4-((6-(bis(4-chlorophenyl)methyl)quinazolin-4-yl)amino)piperidin-1-yl)sulfonyl)phenoxy)acetate]
5 | 801 | O=S(=O)(N1CCC(Nc2ncnc3ccc(C(c4ccc(Cl)cc4)c4ccc(Cl)cc4)cc23)CC1)C(F)(F)F [Compound #145, 6-(bis(4-chlorophenyl)methyl)-N-(1-((trifluoromethyl)sulfonyl)piperidin-4-yl)quinazolin-4-amine]
98 | > 10000 | CC(=O)NCCOc1nc(NCc2ccc(C(F)(F)F)cc2)c2cc(C(c3ccc(Cl)cc3)c3ccc(Cl)cc3)ccc2n1 [Compound #69, N-(2-((6-(bis(4-chlorophenyl)methyl)-4-((4-(trifluoromethyl)benzyl)amino)quinazolin-2-yl)oxy)ethyl)acetamide]

Structure (SMILES) | EC50 [1] [nM] | EC50 [2] [nM]
NCCCCOc1nc(NCc2cccc(C(F)(F)F)c2)c2cc(C(c3ccc(Cl)cc3)c3ccc(Cl)cc3)ccc2n1 [Compound #31, 2-(4-aminobutoxy)-6-(bis(4-chlorophenyl)methyl)-N-(3-(trifluoromethyl)benzyl)quinazolin-4-amine] | 77 | 4120
O=S(=O)(N1CCC(Nc2nc(Cl)nc3ccc(C(c4ccc(Cl)cc4)c4ccc(Cl)cc4)cc23)CC1)C(F)(F)F [Compound 200] | 9 | 6500
